Results on 12 compounds are retold here after publication PMC9457593, “Design, Synthesis, and Evaluation of New Mesenchymal–Epithelial Transition Factor (c-Met) Kinase Inhibitors with Dual Chiral Centers” (Molecules, 2022).

Assay [1] deals with MHCC97H cells. As to the kind of experiment: MTT antiproliferative assay. The assay is classed as cell-based, human. The text has this:
On the basis of our former study, compounds 12a-b were designed and first screened for their antiproliferative activity against the c-Met-driven human hepatocarcinoma cells (MHCC97H), using a standard MTT assay. Tepotinib was used as a positive control.

Assay [2] concerns MHCC97H cells. Further details: method as in PMID 29393886. As to conditions: compounds bearing a single chiral center, from our previous work; read-out: MHCC97H Cell IC50; cited from earlier work.
Assay [3] addresses T1, c-Met kinase (Homo sapiens, UniProt P08581).
T1 construct: purchased Carna Bioscience 08-151
As to the kind of experiment: c-Met kinase inhibition assay (Mobility Shifting Assay). The assay is classed as biochemical. The conditions noted are these: mean ± SD of three independent experiments. On the procedure: The kinase inhibition assay was carried out according to the principle of MSA (Mobility Shifting Assay) detection. […] Using triple dilution method, 10 gradient concentration groups were received. Varying concentrations of compounds were transported in 384-well plates, and 100% DMSO was set as negative control. After adding kinase buffer, the 384-well plates were centrifuged and vortexed, followed by 10 min of incubation. […] Finally, adding stop solution ended kinase reaction, and the conversion% was detected by a microplate reader (Caliper EZ Reader II, Perkin Elmer, Waltham, Massachusetts, […]). The statistics were analyzed by GraphPad Prism 8, using log (inhibitor) vs. response–variable slope to fit the dose–effect curve.

For assay [4], the system named is MHCC97H cells. As to the kind of experiment: Cell cycle analysis (PI, flow cytometry). The conditions noted are these: 10 nM, 48 h. In kind it is cell-based, human. On the procedure:
MHCC97H cells were incubated with varying concentrations of compound (R, S)-12a or 1‰ DMSO for 48 h. The cells were collected by centrifugation, washed with PBS, and fixed in 70% ice-cold ethanol at 4 °C for 12 h. After the removal of ethanol, each sample was re-suspended in 500 μL of staining buffer containing 50 μL of RNase A and 450 μL of propidium iodide (KGA511, KeyGEN, BioTECH, Nanjing, Jiangsu, China) and incubated at room temperature, avoiding light exposure for 30 min. The DNA content of the cells was measured using a CytoFLXE flow cytometer (BECKMAN COLTER, Brea, CA, USA).

In assay [5] the test system is MHCC97H cells. Nature of the assay: Annexin V-FITC/PI apoptosis analysis (flow cytometry). In kind it is cell-based, human. As to conditions: 48 h. On the procedure: MHCC97H cells were incubated with varying concentrations of compound (R, S)-12a or diluent (1‰ DMSO, as a negative control) for 48 h. The cells were harvested and washed with PBS twice. Then, 500 μL of binding buffer suspended cells were added. The cells were stained with 5 μL of Annexin V-FITC and 10 μL of PI (KGA105, KeyGEN, BioTECH, Nanjing, Jiangsu, China). Then, the cells were incubated at room temperature for 15 min without light exposure. Apoptosis was analyzed using a CytoFLXE flow cytometer (BECKMAN COLTER, Brea, CA, USA).

Assay [6] has as its system MHCC97H cells. As to the kind of experiment: Hoechst 33342 staining for apoptosis morphology. The assay is classed as cell-based, human. The conditions noted are these: 1, 5, and 10 nM, 48 h, vs vehicle control. The text has this:
Tumor cell apoptosis is an important stage in the effective treatment of cancer. To evaluate the capacity of compound (R, S)-12a to induce apoptosis in human cancer cell lines, we used Hoechst 33342 staining to investigate the effect of compound (R, S)-12a on MHCC97H cells. Hoechst 33342 staining was used to examine apoptosis through morphological observation.

For assay [7], the system named is MHCC97H cells. As to the kind of experiment: Wound healing (cell scratch) assay. The assay is classed as cell-based, human. As to conditions: 1, 2, and 3 nM; 0, 6, 12, and 24 h; vs vehicle control. The method, then: MHCC97H cells were seeded in a 6-well plate and cultured for 24 h; subsequently, the confluent monolayer cells were scratched with a 10 μL pipette tip. After that, the wound was washed with PBS thrice to remove the non-adherent cell debris. In addition, each petri dish had media containing (R, S)-12a in gradient concentrations (1, 2, and 3 nM) added. At 0, 6, 12, and 24 h, changes of cell scratch in area were photographed by phase contrast microscope and finally measured and analyzed by Image J.

The subject of assay [8] is MHCC-97H tumor cells. As to the kind of experiment: Tumor cell morphology. In kind it is cell-based, human. The conditions noted are these: 10 and 50 nM. The method, then:
Co-incubation with compound (R, S)-12a (1, 10, and 50 nM) led to a significant reduction in […] cell viability. Red arrowheads indicated distinct morphological changes, such as intracytoplasmic particles increasing, the cell shape change, and loss of adherent property. […] Aggregation, lysis, and cell debris also occurred.

The subject of assay [9] is c-Met. As to the kind of experiment: Immunofluorescence staining and Western blotting of c-Met and p-c-Met in MHCC97H cells. The assay is classed as cell-based, human. On the procedure: (§1) MHCC97H cells were seeded into confocal dishes and then treated with vehicle control (1‰ DMSO) and compound (R, S)-12a (2.5 nM). Cells were washed thrice with PBS, fixed with 4% paraformaldehyde for 15 min, and punched with 0.2% triton X100 and then blocked with 500 μL of blocking buffer at room temperature for 1 h. Cells were incubated with a primary monoclonal antibody (c-Met, p-c-Met, AKT, and p-AKT) at 4 °C for 12 h and then washed with PBS thrice, followed by incubation with the fluorescence secondary antibody (Alexa Fluor 488-labeled Goat Anti-Mouse IgG (H + L)-A0428) and labeling of nuclei by Hoechst33342 (MA0126, Meilunbio, Dalian, Liaoning, China). The cells were finally visualized by a confocal microscope (Carl Zessi Microscopy LSM 880, Oberkochen, Germany). The average fluorescence intensity of FITC channel was analyzed by Image J, and the illustration was drafted by GraphPad Prism8.
(§2) MHCC97H cells were then homogenized with lysis buffer. The protein concentrations were detected using a BCA Protein Assay Kit (Pierce BCA Protein Assay Kit 23227, Thermo, Waltham, MA, USA), and their extracts were reconstituted within loading buffer (Beyotime, Shanghai, China) and inactivated for 5 min at 100 °C. Subsequently, proteins (20 μg) were fractionated by 10% SDS-PAGE and transferred to PVDF membranes. Then, PVDF membranes were blocked in 10% skimmed milk and incubated with the appropriate dilution of primary antibodies, including c-Met (Abcam, Cambridge, UK), p-c-Met (Abcam), AKT (Cell Signaling Technology), p-AKT (Cell Signaling Technology), and GAPDH (Cell Signaling Technology, […], MA, USA). The above primary antibodies were then reacted with HRP-conjugated secondary antibody, and immunoreactive bands were visualized by an ECL Detection Reagent (36208ES60, Yeasen, Shanghai, China) and were estimated through densitometry with a chemiluminescence imaging system (Tanon, Shanghai, China). Intensities of the blots were quantified with Image J and analyzed by GraphPad Prism 8.

Assay [10] has as its system AKT. Nature of the assay: Immunofluorescence staining and Western blotting of AKT and p-AKT in MHCC97H cells. In kind it is cell-based, human. The method, then: as §1, §2
Assay [11] has as its system LO2 (human normal liver cells). As to the kind of experiment: Toxicity towards normal cells (LO2). The conditions noted are these: for IC50: Homo sapiens, read-out: IC50 on LO2.
The subject of assay [12] is HaCat (human immortalized keratinocytes). As to the kind of experiment: Toxicity towards normal cells (HaCat). The conditions noted are these: for IC50: Homo sapiens, HaCaT, read-out: IC50 on HaCat.
[13] abbreviates: MTT, 48 h, mean ± SD of three independent experiments, read-out: MHCC97H Cell IC50.
[14] abbreviates: immunofluorescence, 2.5 nM, 48 h.

“And” between values parts separate entries of the source, which are not always exact repeats. Equal entries are not always repeated. Where two headings read alike, the source gives them in different places.

T1 sequence (P08581 956-1390 limits assumed): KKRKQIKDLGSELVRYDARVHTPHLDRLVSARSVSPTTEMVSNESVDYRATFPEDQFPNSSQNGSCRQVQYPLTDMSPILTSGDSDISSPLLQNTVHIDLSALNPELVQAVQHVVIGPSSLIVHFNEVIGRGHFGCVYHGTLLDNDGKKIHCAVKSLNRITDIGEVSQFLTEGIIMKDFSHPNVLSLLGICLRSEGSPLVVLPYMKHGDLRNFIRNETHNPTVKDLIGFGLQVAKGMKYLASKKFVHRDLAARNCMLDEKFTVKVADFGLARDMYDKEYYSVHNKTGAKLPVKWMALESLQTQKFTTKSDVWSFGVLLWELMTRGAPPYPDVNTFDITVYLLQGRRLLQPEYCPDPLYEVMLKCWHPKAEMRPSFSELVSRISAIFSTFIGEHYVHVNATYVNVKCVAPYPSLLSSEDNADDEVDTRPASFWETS

In the case of “(S,R)-3-(1-(1-(3-(5-(1-((1-Methyl-1,2,3,6-tetrahydropyridin-4-yl)oxy)ethyl)pyrimidin-2-yl)phenyl)ethyl)-6-oxo-1,6-dihydropyridazin-3-yl)benzonitrile [(S, R)-12b]”, in assay [1] (setting [13]), the IC50 amounted to 616 ± 78.2 nM.

Turning to `C[C@H](c1cccc(-c2ncc(OCC3CCN(C)CC3)cn2)c1)n1nc(-c2cccc(C#N)c2)ccc1=O` [(R)-5b], the IC50 in assay [2] is 3.7 ± 1 nM.

On to “(R,R)-3-(1-(1-(3-(5-(1-((1-Methyl-1,2,3,6-tetrahydropyridin-4-yl)oxy)ethyl)pyrimidin-2-yl)phenyl)ethyl)-6-oxo-1,6-dihydropyridazin-3-yl)benzonitrile [(R, R)-12b]”, for which, in [1] (setting [13]), the IC50 is 130 ± 38 nM.

For the compound `CC(Oc1cnc(-c2cccc(C(C)n3nc(-c4cccc(C#N)c4)ccc3=O)c2)nc1)C1CCN(C)CC1` [(S, S)-12a], the 50% inhibitory concentration (IC50) in [3] was 35.8 ± 6.8 nM; in assay [1] (setting [13]) it was 48.3 nM and 48 nM.

As for `CC(Oc1cnc(-c2cccc(C(C)n3nc(-c4cccc(C#N)c4)ccc3=O)c2)nc1)C1CCN(C)CC1` [(R, S)-12a], in assay [3], the IC50 was determined as 1.56 ± 1 nM. The concentration for half-maximal inhibition (IC50) in assay [1] (Homo sapiens, MHCC97H, Table 2, read-out: IC50 on MHCC-97H) was found to be 2 ± 2 nM. Moreover, the IC50 in assay [1] (setting [13]) turned out to be 2.1 nM. Further, in assay [4], the “proportion of cells in the G1 phase” value was determined as 70.99% and the “proportion of cells in the G2/M phases” value was determined as 12.44%. The “proportions of early and late apoptosis cells” value in [5] (1 nM) amounted to 8.9%. Further, the “proportions of early and late apoptosis cells” value in assay [5] (5 nM) is on record as 33.3%. Besides, in assay [6], the “nuclear morphology by Hoechst 33342 staining” value was “obvious nucleolar pyknosis, DNA fragmentation, and chromatin condensation”. In [7], the wound closure result is reported as “significantly suppressed wound closure”. Moreover, the tumor cell morphology entry in assay [8] was “the cells shrank and floated and no longer adhered to the wall”. For the same compound, in assay [9] (Western blot, dose-dependent), the “phosphorylation level of c-Met” value is reported as “decrease”. In [9] (setting [14]), the “fluorescence intensity of c-Met (total c-Met protein)” value was “did not change significantly” and the “fluorescence intensity of p-c-Met” value is “decreased significantly”. In assay [10] (Western blot, dose-dependent), the “phosphorylation level of AKT protein” value is “decrease”. Also, in assay [10] (setting [14]), the “fluorescence intensity of AKT (total AKT protein)” value is “did not change significantly” and the “fluorescence intensity of p-AKT” value is given as “decreased significantly”. In addition, in assay [11], the “Selectivity Index (LO2 vs MHCC-97H)” value is recorded as 5750.0 and the IC50 amounted to 11500 ± 1530 nM. Further, in [12], the “Selectivity Index (HaCat vs MHCC-97H)” value worked out at 953.5 and the IC50 came to 1910 ± 250 nM.

On to `CC(Oc1cnc(-c2cccc(C(C)n3nc(-c4cccc(C#N)c4)ccc3=O)c2)nc1)C1CCN(C)CC1` [(S, R)-12a], for which the IC50 was 195 ± 73.2 nM in assay [3]; 205 nM and 210 nM in assay [1] (setting [13]).

Take `CN1CCC(COc2cnc(-c3cccc(Cn4nc(-c5cccc(C#N)c5)ccc4=O)c3)nc2)CC1` [Tepotinib, tepotinib, reference compound]: the IC50 in [1] (Homo sapiens, MHCC97H, 48 h, read-out: MHCC97H Cell IC50) turned out to be 13 ± 2 nM; in [1] (Homo sapiens, MHCC97H, read-out: IC50 on MHCC-97H), 13 ± 2 nM; in assay [11] it was 8730 ± 841 nM; in [12], 1950 ± 349 nM.

As for “(S,S)-3-(1-(1-(3-(5-(1-((1-Methyl-1,2,3,6-tetrahydropyridin-4-yl)oxy)ethyl)pyrimidin-2-yl)phenyl)ethyl)-6-oxo-1,6-dihydropyridazin-3-yl)benzonitrile [(S, S)-12b]”, the half-maximal inhibitory concentration (IC50) in assay [1] (setting [13]) was determined as 136 ± 52 nM.

Take “(R,S)-3-(1-(1-(3-(5-(1-((1-Methyl-1,2,3,6-tetrahydropyridin-4-yl)oxy)ethyl)pyrimidin-2-yl)phenyl)ethyl)-6-oxo-1,6-dihydropyridazin-3-yl)benzonitrile [(R, S)-12b]”: in [1] (setting [13]), the IC50 was determined as 9 ± 5 nM.

As to `CC(c1cccc(-c2ncc(OCC3CCN(C)CC3)cn2)c1)n1nc(-c2cccc(C#N)c2)ccc1=O` (racemic) [(±)-5b], the half-inhibitory concentration (IC50) in assay [2] was 35.3 ± 11 nM.

`C[C@@H](c1cccc(-c2ncc(OCC3CCN(C)CC3)cn2)c1)n1nc(-c2cccc(C#N)c2)ccc1=O` [(S)-5b]: the IC50 in [2] is 118 ± 56 nM.

`CC(Oc1cnc(-c2cccc(C(C)n3nc(-c4cccc(C#N)c4)ccc3=O)c2)nc1)C1CCN(C)CC1` [(R, R)-12a]: the figures for the concentration for half-maximal inhibition (IC50) in [3] and in assay [1] (setting [13]) were 28.7 ± 5 nM and 30 ± 8 nM, respectively.
